Results reported in ChEMBL document CHEMBL5154741, “Antibacterial alkylguanidino ureas: Molecular simplification approach, searching for membrane-based MoA” (Eur J Med Chem, 2022).
Activity calls are given as the source filed them. The rule behind the calls is not given here.

Columns and labels:
[1] = test system: Lipid bilayer; test: Binding affinity to bacterial membrane mimic POPG large unilamellar vesicle assessed as hyperchromic shift at 125 uM measured after 1 hr by UV-Vis spectrophotometric analysis
[2] = test system: Cell membrane; test: Disruption of membrane integrity in Acinetobacter baumannii ATCC 17978 assessed as increase in PI uptake at 16 ug/ml measured after 15 mins by SYTO9/PI staining based fluorometric analysis; settings: dose 16.0 µg/ml
[3] = test system: Bacillus subtilis; test: Antibacterial activity against Bacillus subtilis ATCC 6633 assessed as bacterial growth inhibition incubated for 18 hrs by CLSI based micro-dilution broth method; assay type: functional
[4] = test system: Enterococcus faecalis; test: Antibacterial activity against Enterococcus faecalis ATCC 19433 assessed as bacterial growth inhibition incubated for 18 hrs by micro-dilution broth method; assay type: functional
[5] = test system: Streptococcus pyogenes; test: Antibacterial activity against Streptococcus pyogenes ATCC 12344 assessed as bacterial growth inhibition incubated for 18 hrs by micro-dilution broth method; assay type: functional
[6] = test system: Staphylococcus aureus; test: Antibacterial activity against Staphylococcus aureus ATCC 25923 assessed as bacterial growth inhibition incubated for 18 hrs by micro-dilution broth method; assay type: functional
[7] = test system: Escherichia coli; test: Antibacterial activity against Escherichia coli CCUG assessed as bacterial growth inhibition incubated for 18 hrs by micro-dilution broth method; assay type: functional
[8] = test system: Klebsiella pneumoniae; test: Antibacterial activity against Klebsiella pneumoniae ATCC 13833 assessed as bacterial growth inhibition incubated for 18 hrs by micro-dilution broth method; assay type: functional
[9] = test system: Acinetobacter baumannii; test: Antibacterial activity against Acinetobacter baumannii ATCC 17978 assessed as bacterial growth inhibition incubated for 18 hrs by micro-dilution broth method; assay type: functional
[10] = test system: Pseudomonas aeruginosa; test: Antibacterial activity against Pseudomonas aeruginosa ATCC 27853 assessed as bacterial growth inhibition incubated for 18 hrs by micro-dilution broth method; assay type: functional
[11] = test system: Lipid bilayer; test: Binding affinity to bacterial membrane mimic POPG large unilamellar vesicle assessed as bathochromic shift at 125 uM measured at t = 0 by UV-Vis spectrophotometric analysis
[12] = Apparent permeability of the compound across bacterial inner membrane mimic PC-phospholipids in PBS buffer at pH 7.4 incubated for 5 hrs by PAMPA based UV-Vis spectrophotometric analysis; assay type: ADME
[13] = Apparent permeability of the compound across bacterial inner membrane mimic PC-phospholipids in PBS buffer assessed as membrane retention at pH 7.4 incubated for 5 hrs by PAMPA based UV-Vis spectrophotometric analysis; assay type: ADME, cell membranes; settings: pH 7.4, 5 h
[14] = Apparent permeability of the compound across bacterial inner membrane mimic pure POPG in PBS buffer at pH 7.4 incubated for 5 hrs by PAMPA based UV-Vis spectrophotometric analysis; assay type: ADME
[15] = Apparent permeability of the compound across bacterial inner membrane mimic pure POPG in PBS buffer assessed as membrane retention at pH 7.4 incubated for 5 hrs by PAMPA based UV-Vis spectrophotometric analysis; assay type: ADME, cell membranes; settings: pH 7.4, 5 h
[16] = Apparent permeability of the compound across bacterial inner membrane mimic POPE/POPG (6:4) in PBS buffer at pH 7.4 incubated for 5 hrs by PAMPA based UV-Vis spectrophotometric analysis; assay type: ADME
[17] = Apparent permeability of the compound across bacterial inner membrane mimic POPE/POPG (6:4) in PBS buffer assessed as membrane retention at pH 7.4 incubated for 5 hrs by PAMPA based UV-Vis spectrophotometric analysis; assay type: ADME, cell membranes; settings: pH 7.4, 5 h
[18] = test system: Cell membrane; test: Disruption of membrane integrity in Bacillus subtilis ATCC 6633 assessed as increase in PI uptake at 16 ug/ml measured after 15 mins by SYTO9/PI staining based fluorometric analysis; settings: dose 16.0 µg/ml
[19] = test system: Cell membrane; test: Disruption of membrane integrity in Pseudomonas aeruginosa ATCC 27853 assessed as increase in PI uptake at 16 ug/ml measured every 15 mins for 6 hrs by SYTO9/PI staining based fluorometric analysis; settings: dose 16.0 µg/ml
[20] = test system: Cell membrane; test: Disruption of membrane integrity in Enterococcus faecalis ATCC 19433 assessed as increase in PI uptake at 16 ug/ml measured after 15 mins by SYTO9/PI staining based fluorometric analysis; settings: dose 16.0 µg/ml
[21] = test system: Cell membrane; test: Disruption of membrane integrity in Escherichia coli MG1655 assessed as increase in PI uptake at 16 ug/ml measured every 15 mins for 6 hrs by SYTO9/PI staining based fluorometric analysis; settings: dose 16.0 µg/ml
[22] = test system: Cell membrane; test: Disruption of membrane integrity in Staphylococcus aureus ATCC 25923 assessed as increase in PI uptake at 16 ug/ml measured every 15 mins for 6 hrs by SYTO9/PI staining based fluorometric analysis; assay type: subcellular; settings: dose 16.0 µg/ml
[23] = test system: Cell membrane; test: Disruption of membrane integrity in Enterococcus faecalis ATCC 19433 assessed as increase in PI positive cells at 16 ug/ml measured after 1 hr by SYTO9/PI staining based confocal laser scanning microscope analysis; assay type: subcellular; settings: dose 16.0 µg/ml
[24] = test system: Cell membrane; test: Disruption of membrane integrity in Bacillus subtilis ATCC 6633 assessed as increase in PI positive cells at 16 ug/ml measured after 1 hr by SYTO9/PI staining based confocal laser scanning microscope analysis; assay type: subcellular; settings: dose 16.0 µg/ml
[25] = test system: Cell membrane; test: Disruption of membrane integrity in Acinetobacter baumannii ATCC 17978 assessed as increase in PI positive cells at 16 ug/ml measured after 1 hr by SYTO9/PI staining based confocal laser scanning microscope analysis; settings: dose 16.0 µg/ml
[26] = test system: Cell membrane; test: Disruption of membrane integrity in Escherichia coli MG1655 assessed as increase in PI positive cells at 16 ug/ml measured after 1 hr by SYTO9/PI staining based confocal laser scanning microscope analysis; assay type: subcellular; settings: dose 16.0 µg/ml
[27] = test system: Cell membrane; test: Disruption of membrane integrity in Pseudomonas aeruginosa ATCC 27853 assessed as increase in PI positive cells at 16 ug/ml measured after 1 hr by SYTO9/PI staining based confocal laser scanning microscope analysis; assay type: subcellular; settings: dose 16.0 µg/ml
[28] = test system: Cell membrane; test: Disruption of membrane integrity in Staphylococcus aureus ATCC 25923 assessed as increase in PI positive cells at 16 ug/ml measured after 1 hr by SYTO9/PI staining based confocal laser scanning microscope analysis; assay type: subcellular; settings: dose 16.0 µg/ml
[29] = Hemolytic activity against human RBC at 1 ug/ml incubated for 30 mins (reference value: 0%); assay type: toxicity, cell-based, Erythrocyte; settings: human red blood cells (erythrocytes), at 1 µg/mL, read-out: Activity
[30] = Hemolytic activity against human RBC at 2 ug/ml incubated for 30 mins (reference value: 0%); assay type: toxicity, cell-based, Erythrocyte; settings: human red blood cells (erythrocytes), at 2 µg/mL, read-out: Activity
[31] = Hemolytic activity against human RBC at 4 ug/ml incubated for 30 mins (reference value: 0%); assay type: toxicity, cell-based, Erythrocyte; settings: human red blood cells (erythrocytes), at 4 µg/mL, read-out: Activity
[32] = Hemolytic activity against human RBC at 8 ug/ml incubated for 30 mins (reference value: 0%); assay type: toxicity, cell-based, Erythrocyte; settings: human red blood cells (erythrocytes), at 8 µg/mL, read-out: Activity
[33] = Hemolytic activity against human RBC at 16 ug/ml incubated for 30 mins relative to control; assay type: toxicity, cell-based, Erythrocyte; settings: human red blood cells (erythrocytes), at 16 µg/mL, read-out: Activity
[34] = Hemolytic activity against human RBC at 32 ug/ml incubated for 30 mins (reference value: 0%); assay type: toxicity, cell-based, Erythrocyte; settings: human red blood cells (erythrocytes), at 32 µg/mL, read-out: Activity
[35] = Hemolytic activity against human RBC at 64 ug/ml incubated for 30 mins (reference value: 0%); assay type: toxicity, cell-based, Erythrocyte; settings: human red blood cells (erythrocytes), at 64 µg/mL, read-out: Activity
[36] = test system: Cell membrane; test: Disruption of membrane integrity in Acinetobacter baumannii ATCC 17978 assessed as increase in PI uptake at 16 ug/ml measured after 1 hr by SYTO9/PI staining based fluorometric analysis; assay type: subcellular; settings: dose 16.0 µg/ml
[37] = test system: Cell membrane; test: Disruption of membrane integrity in Bacillus subtilis ATCC 6633 assessed as increase in PI uptake at 16 ug/ml measured after 1 hr by SYTO9/PI staining based fluorometric analysis; assay type: subcellular; settings: dose 16.0 µg/ml
[38] = test system: Cell membrane; test: Disruption of membrane integrity in Enterococcus faecalis ATCC 19433 assessed as increase in PI uptake at 16 ug/ml measured after 1 hr by SYTO9/PI staining based fluorometric analysis; assay type: subcellular; settings: dose 16.0 µg/ml
[39] = test system: Cell membrane; test: Disruption of membrane integrity in Escherichia coli MG1655 assessed as increase in PI uptake at 16 ug/ml measured after 1 hr by SYTO9/PI staining based fluorometric analysis; assay type: subcellular; settings: dose 16.0 µg/ml
[40] = test system: Cell membrane; test: Disruption of membrane integrity in Pseudomonas aeruginosa ATCC 27853 assessed as increase in PI uptake at 16 ug/ml measured after 1 hr by SYTO9/PI staining based fluorometric analysis; assay type: subcellular; settings: dose 16.0 µg/ml
[41] = test system: Cell membrane; test: Disruption of membrane integrity in Staphylococcus aureus ATCC 25923 assessed as increase in PI uptake at 16 ug/ml measured after 1 hr by SYTO9/PI staining based fluorometric analysis; settings: dose 16.0 µg/ml

With N=C(N)NCCCCCCCCN(CCCCCCCCN)C(=O)N(CCCCCCCCN)CCCCCCCCNC(=N)N.O=C(O)C(F)(F)F the Activity [1] was “Active”, the Activity [2] was “Active” and the MIC [3] was 0.5 µg/mL. It also gave an MIC [4] of 8 µg/mL, an MIC [5] of 0.25 µg/mL and an MIC [6] of 0.5 µg/mL. For the same molecule, the MIC [7] was 2 µg/mL, the MIC [8] was 16 µg/mL and the MIC [9] was 16 µg/mL. The MIC [10] was 32 µg/mL, the Activity [11] was “Active” and the Papp at 5 h [12] was 0.21 ×10⁻⁶ cm/s. It also gave a R% [13] of 36.3%, a Papp at 5 h [14] of 0.19 ×10⁻⁶ cm/s and a R% [15] of 52.4%. The Papp at 5 h [16] was 0.18 ×10⁻⁶ cm/s, the R% [17] was 47.3% and the Activity [18] was “Active”. The Activity [19] was “Active”, the Activity [20] was “Active” and the Activity [21] was “Active”. For the same molecule, the Activity [22] was “Active”, the Activity [23] was “Active” and the Activity [24] was “Active”. For the same molecule, the Activity [25] was “Active”, the Activity [26] was “Active” and the Activity [27] was “Active”. For the same molecule, the Activity [28] was “Active”, the hemolysis at 0.5 h, 1 ug/ml [29] was 0% and the hemolysis at 0.5 h, 2 ug/ml [30] was 0%. For the same molecule, the hemolysis at 0.5 h, 4 ug/ml [31] was 0%, the hemolysis at 0.5 h, 8 ug/ml [32] was 0% and the hemolysis at 0.5 h, 16 ug/ml [33] was 0.6%. For the same molecule, the hemolysis at 0.5 h, 32 ug/ml [34] was 1.6%, the hemolysis at 0.5 h, 64 ug/ml [35] was 2% and the Activity [36] was “Active”. The Activity [37] was “Active”, the Activity [38] was “Active” and the Activity [39] was “Active”. For the same molecule, the Activity [40] was “Active” and the Activity [41] was “Active”.
